Our source for the EC50 values is patent publication US10150758B2, “PRMT5 inhibitors and uses thereof” (Epizyme, Inc., priority 2012, dated 2018).

Some results are limits rather than exact numbers.

This assay has as its system symmetric di-methyl arginine in Z-138 cells. As to the kind of experiment: Z-138 Methylation Assay (In Cell Western for symmetric di-methyl arginine and DNA content). It counts as cell-based. To be noted: Homo sapiens, 96 hours incubation, read-out: ICW EC50. The source says: [formula] [formula] Where top and bottom are the normally allowed to float, but may be fixed at 100 or 0 respectively in a 3-parameter fit. The Hill Coefficient normally allowed to float but may also be fixed at 1 in a 3-parameter fit. Y is the % inhibition and X is the compound concentration. Z-138 Methylation Assay
Z-138 suspension cells were purchased from ATCC (American Type Culture Collection, Manassas, Va.). RPMI/Glutamax medium, penicillin-streptomycin, heat inactivated fetal bovine serum, and D-PBS were purchased from Life Technologies, Grand Island, N.Y., USA. Odyssey blocking buffer, 800CW goat anti-rabbit IgG (H+L) antibody, and Licor Odyssey infrared scanner were purchased from Licor Biosciences, Lincoln, Nebr., USA. Symmetric di-methyl arginine antibody was purchased from EMD Millipore, Billerica, Mass., USA. 16% Paraformaldehyde was purchased from Electron Microscopy Sciences, Hatfield, Pa., USA.
Z-138 suspension cells were maintained in growth medium (RPMI 1640 supplemented with 10% v/v heat inactivated fetal bovine serum and 100 units/mL penicillin-streptomycin) and cultured at 37° C. under 5% CO2.
Cell Treatment, in Cell Western (ICW) for Detection of Symmetric Di-Methyl Arginine and DNA Content.
Z-138 cells were seeded in assay medium at a concentration of 50,000 cells per mL to a 384-well cell culture plate with 50 μL per well. Compound (100 nL) from 384 well source plates was added directly to 384 well cell plate. Plates were incubated at 37° C., 5% CO2 for 96 hours. After four days of incubation, 40 μL of cells from incubated plates were added to poly-D-lysine coated 384 well culture plates (BD Biosciences 356697). Plates were incubated at room temperature for 30 minutes then incubated at 37° C., 5% CO2 for 5 hours. After the incubation, 40 μL per well of 8% paraformaldehyde in PBS (16% paraformaldahyde was diluted to 8% in PBS) was added to each plate and incubated for 30 minutes. Plates were transferred to a Biotek 405 plate washer and washed 5 times with 100 μL per well of wash buffer (1×PBS with 0.1% Triton X-100 (v/v)). Next 30 μL per well of Odyssey blocking buffer were added to each plate and incubated 1 hour at room temperature. Blocking buffer was removed and 20 μL per well of primary antibody was added (symmetric di-methyl arginine diluted 1:100 in Odyssey buffer with 0.1% Tween 20 (v/v)) and plates were incubated overnight (16 hours) at 4° C. Plates were washed 5 times with 100 μL per well of wash buffer. Next 20 μL per well of secondary antibody was added (1:200 800CW goat anti-rabbit IgG (H+L) antibody, 1:1000 DRAQ5 (Biostatus limited) in Odyssey buffer with 0.1% Tween 20 (v/v)) and incubated for 1 hour at room temperature. The plates were washed 5 times with 100 μL per well wash buffer then 1 time with 100 μL per well of water. Plates were allowed to dry at room temperature then imaged on the Licor Odyssey machine which measures integrated intensity at 700 nm and 800 nm wavelengths. Both 700 and 800 channels were scanned.
First, the ratio for each well was determined by:
Each plate included fourteen control wells of DMSO only treatment (minimum inhibition) as well as fourteen control wells for maximum inhibition treated with 3 μM of a reference compound (Background wells). The average of the ratio values for each control type was calculated and used to determine the percent inhibition for each test well in the plate. Reference compound was serially diluted three-fold in DMSO for a total of nine test concentrations, beginning at 3 μM. Percent inhibition was determined and IC50 curves were generated using triplicate wells per concentration of compound.
As to `O=C1CN(c2cccc3cccnc23)CCN1CC(O)CN1CCc2ccccc2C1` (centres unmarked) [Compound 4, 1-(3-(3,4-dihydroisoquinolin-2(1H)-yl)-2-hydroxypropyl)-4-(quinolin-8-yl)piperazin-2-one], the EC50 – broadly, the concentration giving half of the maximal effect – was 101 to 1000 nM.
Under `Cc1ccc(N2CCN(CC(O)CN3CCc4ccccc4C3)C(=O)C2)cc1` (centres unmarked) [Compound 15, 1-(3-(3,4-dihydroisoquinolin-2(1H)-yl)-2-hydroxypropyl)-4-(p-tolyl)piperazin-2-one] stands 101 to 1000 nM; under `O=C1CN(c2ccccc2Cl)CCN1CC(O)CN1CCc2ccccc2C1` (centres unmarked) [Compound 9], 101 to 1000 nM; under `O=C1CN(c2ccc(Cl)cc2)CCN1CC(O)CN1CCc2ccccc2C1` (centres unmarked) [Compound 7, 4-(4-chlorophenyl)-1-(3-(3,4-dihydroisoquinolin-2(1H)-yl)-2-hydroxypropyl)piperazin-2-one], 101 to 1000 nM.
In the case of `CN(C)c1ccccc1N1CCN(C[C@H](O)CN2CCc3ccccc3C2)C(=O)C1` [Compound 29], the EC50 was in the range of 101 to 1000 nM.
Turning to `O=C1CN(c2cncc(N3CCOCC3)c2)CCN1CC(O)CN1CCc2ccccc2C1` (centres unmarked) [Compound 8, 1-(3-(3,4-dihydroisoquinolin-2(1H)-yl)-2-hydroxypropyl)-4-(5-morpholinopyridin-3-yl)piperazin-2-one], the EC50 was in the range of 101 to 1000 nM.
With `O=C1Cc2ccccc2N1CC(O)CN1CCc2ccccc2C1` (centres unmarked) [Compound 1, 1-(3-(3,4-dihydroisoquinolin-2(1H)-yl)-2-hydroxypropyl)indolin-2-one], the EC50 fell in the range of 101 to 1000 nM.
As to `O=c1cc(Nc2ccccc2)ccn1C[C@H](O)CN1CCc2ccccc2C1` [Compound 19, (R)-1-(3-(3,4-dihydroisoquinolin-2(1H)-yl)-2-hydroxypropyl)-4-(phenylamino)pyridin-2(1H)-one], the EC50 fell in the range of 101 to 1000 nM.
As for `O=C1CN(c2cccc(F)c2)CCN1CC(O)CN1CCc2ccccc2C1` (centres unmarked) [Compound 6], the EC50 is 101 to 1000 nM.
Turning to `O=C1CN(c2cccc(N3CCOCC3)c2)CCN1CC(O)CN1CCc2ccccc2C1` (centres unmarked) [Compound 12, 1-(3-(3,4-dihydroisoquinolin-2(1H)-yl)-2-hydroxypropyl)-4-(3-morpholinophenyl)piperazin-2-one], the EC50 was < 100 nM.
In the case of `O=C1COc2ccccc2N1CC(O)CN1CCc2ccccc2C1` (centres unmarked) [Compound 31, 4-(3-(3,4-dihydroisoquinolin-2(1H)-yl)-2-hydroxypropyl)-2H-benzo[b][1,4]oxazin-3(4H)-one], the EC50 lay in the range of 101 to 1000 nM.
